The record followed here is US20260217768A1, “NANOPARTICLE-NHE3 PEPTIDE TO TREAT DIARRHEA” (The Johns Hopkins University, priority 2023, published 2026).

In one assay the test system is NHE3. Kind of assay: Effect of N-terminal truncations of N3SP-1 on NHE3 activity in human enteroids (BCECF-fluorometry). It is filed as cell-based. The following applies: human duodenal enteroids, Hill equation. How it is done:
NHE3 activity in PS120, Caco-2/BBe cells and human jejunal enteroids was determined fluorometrically (Photon Technologies Incorporated) using the intracellular pH sensitive dye BCECF, as reported (Levine et al., 1993; Sarker et al., 2008; Foulke-Abel et al., 2020). PS120/HA3-NHE3 cells were seeded on glass cover slips and studied at 70-80% confluency. Caco-2/BBe/HA3-NHE3 cells were grown to confluency on Transwell inserts (polyester, 0.4-μm pore size) and studied approximately 14-16 days pod. Human duodenal enteroid monolayers on Transwell inserts were differentiated for 5 days in the absence of Wnt3a, R-spondin, and noggin as described (Noel et al., 2017; Staab et al., 2020).
Rates of Na^+/H^+ exchange were determined as Na^+-dependent alkalinization in the presence of 50-μM HOE-694 (to inhibit all other plasma membrane NHE isoforms) in HCO3-free solutions, with internal calibration using the nigericin/K+ method, as previously described (Sarker et al., 2008; Foulke-Abel et al., 2020). Kinetic analysis was used for PS120 cell studies (expressed as Vmax) and initial rates (ΔpH/min) for Caco-2/BBe cells, mouse intestine in vitro, and human enteroids. For in vitro mouse jejunal transport studies, NHE3 activity (in the presence of 50-μM HOE-694) was measured using SNARF-4F at 37° C. in a perfusion chamber using a two-photon microscope (Olympus FV1000) and 25× objective, as described (Murtazina et al., 2011).
Concentration dependent effects on NHE3 basal activity was determined using BCECF-fluorometry. Kinetic analysis was determined of extent of stimulation of basal NHE3 activity; analysis was by use of the Hill equation.
Given the ability of N3SP-1Δ7 to prevent CTx-induced fluid secretion in vivo (FIG. 3E) and to stimulate basal NHE3 activity and prevent cAMP inhibition in human enteroids (FIG. 4C), further studies were carried out with human enteroids to determine the shortest N3SP-1-related peptide that would stimulate human NHE3. A series of N3SP-1 N-terminal truncations was synthesized and concentration-dependent stimulation of NHE3 activity determined using human jejunal enteroids.

For another assay, the system named is adenylate cyclase-cAMP. Briefly: cAMP assay in human enteroid monolayers exposed to FSK. It is filed as cell-based. As to conditions: nanoparticles with 250-nM peptide, FSK (10 μM) 45 min, CP-2 vs N3SP-1Δ7. On the procedure:
Human jejunal enteroid monolayers on Transwell inserts (Corning Cat #: 3470) were differentiated for 5 days and then in serum-free media were exposed apically to nanoparticles containing either 250-nM CP-2 or N3SP-1Δ7. The peptide and polymer in PBS were prepared just before use, allowed to combine for 10 min before being added to the apical surface of enteroid monolayers at room temperature. Monolayers were incubated for 4 hours at 37° C., 5% CO2 incubator before the nanoparticles were removed, then monolayers were washed 3 times with cold PBS and changed to differentiation media and moved to a 37° C. incubator. Differentiation media was removed 24 hours later and washed twice with CMGF-media (Advanced DMEM/F12 with 10-mM Hepes, 10-mM GlutaMax, and 1000 Units/mL Penn/Strep). Next, 100 μL of CMGF-media containing 10-mM Theophylline, 50-μM Cilostazol and 50-μM Rolipram was added to the apical and basolateral surfaces followed by exposure to FSK (10 μM) at 37° C., 5% CO2, for 45 min before apical and basolateral media were collected and cells were lysed in 200-μL 0.1 M HCl for cAMP analysis. CAMP in apical, basolateral, and cells was determined using nonradioactive, CAMP-ELISA kits from ENZO Life Sciences (Loerrach, German), using the acetylation protocol in which the yellow-colored product is inversely proportional to the amount of CAMP present in the sample.

For a further assay, the system named is mouse ileal loops. Kind of assay: CTx-induced fluid secretion in closed mouse ileal loops, nanoparticle-conjugated peptides. It is filed as in vivo. How it is done: All in vivo studies were performed on 8-12 week old C57B1/6N mice anesthetized with isofluorane and kept at 37° C. via heating lamps and rectal thermal probes.
Effect on basal fluid transport and effect of Tenapanor. Mice operated on as above had 3-4 cm closed ileal loops inoculated with 150-μL PBS containing 400-nM nanoparticle-CP-2 or -N3SP-1Δ7. After 4 h, the loops were drained and inoculated with 150-μL PBS. 30 min later, the animals were sacrificed and loop weight/length determined. In parallel studies, Tenapanor (10 μM) was present in both incubation periods. Similar to the BODIPY-conjugated peptide studies, the effects of nanoparticle-CP-2 or N3SP-1Δ7 (4 μM) compared to PBS alone were determined on net fluid secretion produced by inoculation of 0.1-μg CTx. The nanoparticle-peptides plus 0.1-μg CTx in 150-μL PBS were inoculated in 3-4 cm long closed ileal loops. Additional controls included loops exposed only to 150-μL PBS and those only exposed to the CTx/PBS. 4 h later, the animals were sacrificed and loop weight/cm length was determined.

The target of assay [1] is NHERF2 binding to NHE3 C-terminal peptides (Homo sapiens, UniProt Q15599). Briefly: NHE3 peptide-NHERF2 overlay assay. As to conditions: peptide at 5 times the concentration of NHERF2 and MBP-NHE3 fusion peptides, n=5. On the procedure: Two NHE3 C-terminal peptides containing the N3SP-1 sequence were separated on SDS-Page gradient gels and purified NHERF binding determined. Equal concentrations of NHE3 peptides and NHERF2 were used. Prior to NHERF2 addition, the blots were overlayed with 5× the concentration of N3SP-1Δ7 vs CP2.
Binding of purified full-length GST-NHERF2 to two NHE3 C-terminal peptides that contain the N3SP-1 sequence was determined in the presence of equal concentrations of CP-2 compared to N3SP-1Δ7. CP-2 and N3SP-1Δ7 peptides were used at 5 times the concentration of the NHERF2 fusion protein and the MBP-NHE3 fusion peptides.

In assay [2] the test system is differentiated human enteroid monolayers. Kind of assay: Nanoparticle-peptide uptake in human enteroid monolayers (confocal microscopy). The following applies: apical addition, 2 μM, 4 h uptake, differentiated human enteroids. Type of assay: cell-based. On the procedure:
[…] After varying times from 15 min to 4 hours, enteroids were washed three times with PBS to remove extracellular nanoparticles and wells were replenished with fresh serum-containing media.
At varying times after nanoparticle addition up to overnight, enteroids were serum-starved for 2 hours then fixed in 4% paraformaldehyde for 30 minutes. After washing with PBS, formaldehyde was neutralized with 20-mM glycine. Enteroids were then permeabilized in 0.1% saponin, 1% BSA for 30 minutes. Fixed and permeabilized enteroids were stained for biotinylated peptide using streptavidin conjugated AlexaFluor 488 (1:100) and Hoechst stain (1:200). Enteroids were thoroughly washed with PBS and mounted onto microscope slides. Uptake was visualized using an Olympus FV3000RS confocal microscope and 40× objective (Olympus, Tokyo, Japan).

NHERF2 binding to NHE3 C-terminal peptides, sequence (Q15599 whole entry, the tested form may be a part): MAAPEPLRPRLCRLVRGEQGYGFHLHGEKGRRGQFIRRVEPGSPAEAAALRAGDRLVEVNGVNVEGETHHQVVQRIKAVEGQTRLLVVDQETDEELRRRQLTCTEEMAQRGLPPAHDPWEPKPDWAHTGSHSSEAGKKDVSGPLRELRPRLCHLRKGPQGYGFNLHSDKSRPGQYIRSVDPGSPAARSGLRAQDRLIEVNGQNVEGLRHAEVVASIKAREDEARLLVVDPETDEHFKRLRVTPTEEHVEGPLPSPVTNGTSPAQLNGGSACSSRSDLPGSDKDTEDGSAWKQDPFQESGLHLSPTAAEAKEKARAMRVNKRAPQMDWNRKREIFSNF

For “N3SP-1 lacking first seven N-terminal amino acids: RPSTVEASVSYLLRESASAVCLDMQSLEQRR [Peptide N3SP-1Δ7]”, the “Stimulation of NHE3 Activity” value in the assay on NHE3 (basal NHE3 activity, BCECF-fluorometry) was “YES (39%)”. Moreover, in the assay on NHE3 (stimulation of basal NHE3 activity), the EC50 was found to be 156 nM. For the same substance, in the assay on adenylate cyclase-cAMP, the “FSK-increased intracellular cAMP” value is on record as “similar”. Moreover, the “reduction of cholera toxin induced secretion” value with mouse ileal loops (mouse, in vivo) was “approximately 42%”. Besides, the “effect on CTx-induced fluid in ileal loops (loop weight/length)” value with mouse ileal loops (nanoparticle-peptide 4 μM with 0.1-μg CTx, 4 hours) is “significantly less fluid”. Besides, the “NHERF2 binding to NHE3 C-terminal peptides compared to control peptide CP-2” value in assay [1] is recorded as “preferentially reduces NHERF2 binding”; in assay [1] (listed as N3SP-147), “significantly reduced NHERF2 binding”. For the same substance, the “uptake and location in enteroid monolayers” value in assay [2] is listed as “lack of uptake”.
